Where two headings read alike, the source gives them in different places.
Experiments:
[1] = Cytotoxicity, MTT assay in CEM-T4 cells; format: cell-based; settings: human
Description: For the determination of compounds’ cytotoxicity, CEM-T4 cells were obtained from the NIH AIDS Reagent Program (NIH, US) and were cultured in RPMI supplemented with 10% FCS (Biochrom) and antibiotics at 37 °C in 5% CO2 on 96-well culture plates. The experiments were carried out in media containing tested compounds in concentrations of the appropriate range. Cultures in a neat medium (RPMI, 10% FCS) were used as a control. Viability of cells was determined after 7 days using the MTT assay in which 10 μL of MTT solution (5 mg/mL) was added to each culture plate well, and cultures were incubated for 3 h at a temperature of 37 °C. After the centrifugation, the supernatant was removed, and DMSO was added for lysis of the cells and to dissolve crystals of formazan. Color intensity was measured with a plate reader at 560 nm.
Newly synthesized compounds 2–5 were evaluated for their activity against HIV-1 in a CEM-T4 cell line. First, a cytotoxicity assessment of the synthesized derivatives was performed using the MTT [3-(4,5-dimethylthiazol-2-yl)-2,5-diphenyltetrazolium bromide]. The results were expressed as CC50 (concentration of compound causing 50% cell death). Anti-HIV activity was expressed as IC50 (concentration of compound causing 50% inhibition of replication) and consisted of measurements of p24 antigen made using the Genscreen ULTRA HIV Ag-Ab Kit.

HIV-1 [2] = experiment: Anti-HIV-1 replication activity, p24 antigen ELISA in HIV-infected CEM-T4 cell line; format: cell-based; settings: for IC50: Human immunodeficiency virus 1, CEM-T4, 168 h; for TI: therapeutic index (selectivity index), the ratio of CC50 to IC50; for ability to inhibit HIV replication: tested range of concentrations 0.02 to 10 μM
HIV-1 [3] = system: HIV-1; set-up: method as in PMID 31640137; settings: in vitro anti-HIV-1 activity; cited from earlier work
[4] = cytotoxicity; cited from earlier work
[5] = concentration causing 50% cell death, CEM-T4 cells, MTT, 7 days, read-out: CC50
[6] = cytotoxicity values, CEM-T4 cells, read-out: IC50 (cytotoxicity)

SMILES | CC50 at 7 days [1, 5] | IC50 at 7 days [1, 6] | IC50 (HIV-1 [2]) | TI (HIV-1 [2]) | ability to inhibit HIV replication (HIV-1 [2]) | IC50 (HIV-1 [3]) | CC50 [4] | CC50 at 7 days [1] | IC50 at 7 days [1]
C=C(C)[C@@H]1CC[C@]2(COP(=O)(OCC)OCC)CC[C@]3(C)C(CCC4[C@@]5(C)CC[C@H](OC(=O)CCC(C)(C)C(=O)O)C(C)(C)C5CC[C@]43C)C12 (some centres unmarked) [Compound 5, 28-Diethoxyphosphoryl-3-O-(4′,4′-dimethylglutaryl)betulin] | 15.1 ± 1.27 µM | 15.1 µM | 0.22 ± 0.05 µM | 68 | – | – | – | – | –
C=C(C)[C@@H]1CC[C@]2(COP(=O)(OCC)OCC)CC[C@]3(C)C(CCC4[C@@]5(C)CC[C@H](OC(=O)CC(C)(C)C(=O)O)C(C)(C)C5CC[C@]43C)C12 (some centres unmarked) [Compound 3, 28-Diethoxyphosphoryl-3-O-(3′,3′-dimethylsuccinyl)betulin] | 25.4 ± 1.54 µM | 25.4 µM | 0.02 ± 0.01 µM | 1250 | – | – | – | – | –
C=C(C)[C@@H]1CC[C@]2(CO)CC[C@]3(C)[C@H](CC[C@@H]4[C@@]5(C)CC[C@H](O)C(C)(C)[C@@H]5CC[C@]43C)[C@@H]12 [Compound 1, Betulin] | 46 ± 3.01 µM | – | > 10 µM | – | did not demonstrate the ability to inhibit HIV replication | – | – | – | –
C=C(CP(=O)(OCC)OCC)[C@@H]1CC[C@]2(C(=O)O)CC[C@]3(C)C(CC[C@@H]4[C@@]5(C)CC[C@H](OC(=O)CC(C)(C)C(=O)O)C(C)(C)C5CC[C@]43C)[C@@H]12 (some centres unmarked) [Compound 6, 30-diethoxyphosphoryl-3-O-(3′,3′-dimethylsuccinyl)betulinic acid] | – | – | – | – | – | 0.02 µM | 68 µM | – | –
C=C(C)[C@@H]1CC[C@]2(COP(=O)(OCC)OCC)CC[C@]3(C)C(CCC4[C@@]5(C)CC[C@H](OC(=O)CC(C)(C)CC(=O)O)C(C)(C)C5CC[C@]43C)C12 (some centres unmarked) [Compound 4, 28-Diethoxyphosphoryl-3-O-(3′,3′-dimethylglutaryl)betulin] | 19.7 ± 1.64 µM | 19.7 µM | 0.04 ± 0.01 µM | 500 | – | – | – | – | –
C=C(C)[C@@H]1CC[C@]2(COP(=O)(OCC)OCC)CC[C@]3(C)C(CCC4[C@@]5(C)CC[C@H](O)C(C)(C)C5CC[C@]43C)C12 (some centres unmarked) [Compound 2, 28-Diethoxyphosphorylbetulin] | 18.3 ± 1.64 µM | – | > 10 µM | – | did not demonstrate the ability to inhibit HIV replication | – | – | – | –
C=C(C)[C@@H]1CC[C@]2(C(=O)O)CC[C@]3(C)[C@H](CC[C@@H]4[C@@]5(C)CC[C@H](OC(=O)CC(C)(C)C(=O)O)C(C)(C)[C@@H]5CC[C@]43C)[C@@H]12 [BVM, 3-O-(3’,3’-dimethylsuccinyl)betulinic acid, reference compound] | – | – | 0.03 ± 0.009 µM | – | – | – | – | 29 ± 2.43 µM | 29 µM
